Assay results taken from patent publication US9481870B2, “Nucleic acid encoding a polypeptide having aminotransferase activity, vectors and host cells comprising the nucleic acid” (KANEKA CORPORATION, priority 2010, dated 2016).
Each block holds one compound with its values, some of them ahead of it.

Key:
Format in all cases: biochemical, Pseudomonas sp. MV37
purified TPM [1] = assay: Specificity to amino group donor (dabsylated alanine quantification, Example 10); conditions: pyruvic acid 14 mM, pH 7.5, 30° C., 1 hour; for Relative activity (%): amino group donor 14 mM (28 mM racemic body), n-butylamine = 100%
Description: (§1) Specifically, first, a purified polypeptide is added to a substrate solution with the following composition so that the volume thereof is 400 μl. After 1 hour of reaction at 30° C., 20 μl of 3N hydrochloric acid is added to stop the reaction. Next, 80 μl of a 0.2 M aqueous sodium carbonate solution and 200 μl of an acetone solution of 3.3 mg/mL Dabsyl chloride are separately added to 20 μl of the thus obtained reaction solution, followed by 10 minutes of reaction at 70° C. Acetic acid (20 μl) is added to the reaction solution and then the solution is stirred. The reaction solution is analyzed by HPLC under the following conditions, and then the quantity of dabsylated alanine is determined. In addition, the concentration of a purified polypeptide to be used herein is adjusted so that the amount of alanine generated is 2.8 mM or less as determined by the determination method (hereinafter, referred to as activity assay B).
The purified TPM obtained in Example 7 was examined to determine its specificity to amino group donors. First, 20 μL of a purified TPM solution was added to 380 μL of a substrate solution with the composition given below. After 1 hour of reaction at 30° C., 20 μL, of 3 N hydrochloric acid was added to stop the reaction. Next, 80 μl of an aqueous 0.2 M sodium carbonate solution and 200 μl of an acetone solution of 3.3 mg/mL Dabsyl chloride were added to 20 μL, of the thus obtained reaction solution, followed by 10 minutes of reaction at 70° C. 20 μL of acetic acid was added to the reaction solution. The reaction solution was stirred and then analyzed by HPLC under the following conditions, and thus the quantity of dabsylated alanine was determined.
(§2) [High Performance Liquid Chromatography (HPLC) Analysis Conditions] • Column: Deverosil ODS-HG-3 (NOMURA CHEMICAL) • Eluent: acetonitrile/0.045 M acetate buffer (pH4.1)=35/65 (volume ratio) • Flow rate: 0.9 mL/minute • Detection: 254 nm

purified TPM [2] = assay: Specificity to amino group receptor (Example 12); conditions: (S)-1-phenethylamine 25 mM, pH 7.0, 30° C., 5 minutes
Description: A substrate solution was added to the purified TPM solution, so that the final concentrations of the components would be as follows. After 5 minutes of reaction at 30° C., 6N hydrochloric acid was added in an amount of 50 μL per mL of the reaction solution, so as to stop the reaction. The reaction solution was analyzed by HPLC under the following conditions.
[High Performance Liquid Chromatography (HPLC) Analysis Conditions] • Column: Wakosil-II 5C18 RS (Wako Pure Chemical Industries, Ltd.) • Eluent: 10 mM potassium phosphate buffer (pH5.3): acetonitrile=3:2 • Flow rate: 1 mL/minute • Detection: 241 nm

purified TPM [3] = assay: Specificity 2 to amino group donor: typical substrates of ω-amino acid transaminase (Example 11); conditions: pyruvic acid 14 mM; for activity of TPM for the amino group donor: amino compound 14 mM, pH 7.5; for Relative activity (%): amino group donor 14 mM, pH 7.5, 30° C., 1 hour, (S)-1-phenethylamine = 100
Description: as §1
The purified TPM obtained in Example 7 was examined to determine its reactivity to typical substrates of ω-amino acid transaminase. First, 20 μL of a purified TPM solution was added to 380 μL of a substrate solution with the composition given below. After 1 hour of reaction at 30° C., 20 μL of 3 N hydrochloric acid was added to stop the reaction. Next, 80 μL of a 0.2 M aqueous sodium carbonate solution and 200 μL of an acetone solution of 3.3 mg/mL Dabsyl chloride were separately added to 20 μL of the thus obtained reaction solution, followed by 10 minutes of reaction at 70° C. 20 μL of acetic acid was added to the solution and then it was stirred. The reaction solution was analyzed by HPLC under the following conditions, and thus the quantity of dabsylated alanine was determined.
as §2

SMILES: CCC(C)N (racemic) [±2-butylamine]
Relative activity (%) (purified TPM [1]): 67%
activity of TPM for the amino group donor (purified TPM [1]): exhibits its activity

SMILES: O=C1CCN(Cc2ccccc2)C1 [1-benzyl-3-pyrrolidinone]
Relative activity (%) (purified TPM [2]; substrate concentration 2.5 mM): 4.7%

Relative activity (%) (purified TPM [2]; substrate concentration 2.5 mM): 16%
SMILES: CC(=O)c1ccccn1 [2-acetylpyridine]

Relative activity (%) (purified TPM [2]; substrate concentration 2.5 mM): 4.6%
SMILES: CCCCCC(C)=O [2-heptanone]

SMILES: O=C(O)CCC(=O)C(=O)O [2-ketoglutaric acid]
Relative activity (%) (purified TPM [2]; substrate concentration 25 mM): 0%

Relative activity (%) (purified TPM [2]; substrate concentration 2.5 mM): 17%
SMILES: O=C1CCc2ccccc2C1 [2-tetralone]

activity of TPM for the amino group donor (purified TPM [3]): does not exhibit activity
Relative activity (%) (purified TPM [3]): 0%
SMILES: NCCCC(=O)O [4-aminobutyric acid]

SMILES: C[C@H](N)c1ccccc1 [(S)-α-phenethylamine]
Relative activity (%) (purified TPM [3]): 100%

Relative activity (%) (purified TPM [2]; substrate concentration 2.5 mM): 23%
SMILES: CC(=O)c1cnccn1 [Acetylpyrazine]

SMILES: CCOC(=O)CC(=O)c1ccccc1 [Benzoylacetic acid ethyl]
Relative activity (%) (purified TPM [2]; substrate concentration 2.5 mM): 13%

SMILES: O=C(Cc1ccccc1)c1ccccc1 [Benzyl phenyl ketone]
Relative activity (%) (purified TPM [2]; substrate concentration 2.5 mM): 3.8%

Relative activity (%) (purified TPM [2]; substrate concentration 2.5 mM): 12%
SMILES: CC(=O)CCc1ccccc1 [Benzylacetone]

SMILES: CCCC=O [Butylaldehyde]
Relative activity (%) (purified TPM [2]; substrate concentration 2.5 mM): 7%

SMILES: O=CC(=O)O [Glyoxalic acid]
Relative activity (%) (purified TPM [2]; substrate concentration 25 mM): 40%

SMILES: NCCCC[C@H](N)C(=O)O [L-lysine]
activity of TPM for the amino group donor (purified TPM [3]): does not exhibit activity
Relative activity (%) (purified TPM [3]): 0%

activity of TPM for the amino group donor (purified TPM [3]): does not exhibit activity
Relative activity (%) (purified TPM [3]): 0%
SMILES: NCCCCN [Putrescine]

Relative activity (%) (purified TPM [2]; substrate concentration 25 mM): 100%
SMILES: CC(=O)C(=O)O [Pyruvic acid]

activity of TPM for the amino group donor (purified TPM [3]): does not exhibit activity
Relative activity (%) (purified TPM [3]): 0%
SMILES: NCCS(=O)(=O)O [Taurine]

SMILES: NCc1ccccc1 [benzylamine]
Relative activity (%) (purified TPM [1]): 95%
activity of TPM for the amino group donor (purified TPM [1]): exhibits its activity

SMILES: CCCCN [n-butylamine]
Relative activity (%) (purified TPM [1]): 100%
activity of TPM for the amino group donor (purified TPM [1]): exhibits its activity

activity of TPM for the amino group donor (purified TPM [3]): does not exhibit activity
Relative activity (%) (purified TPM [3]): 0%
SMILES: NCCC(=O)O [β-alanine]
